Laboratory results: article PMC7156458, “Synthetic biology based construction of biological activity-related library of fungal decalin-containing diterpenoid pyrones” (Nature Communications, 2020)
Like-named read-outs stand apart in the source and are kept apart here.

What was measured:
[1] = tested on: human immunodeficiency virus-1 (HIV-1); experiment: anti-HIV MAGI assay; format: cell-based; conditions: Human immunodeficiency virus 1, MAGI, anti-HIV
From the text: We examined the inhibitory activities of DDPs against various species of bacteria (both gram-negative and gram-positive bacteria), fungi and viruses. […] In contrast, preliminary screening of the DDPs for anti-viral agents with hepatitis B virus (HBV), measles virus (MV), Epstein-Barr virus (EBV), herpes simplex virus (HSV) and human immunodeficiency virus-1 (HIV-1) indicated their selective inhibition of HIV.

MCF-7 cells = experiment: cell cytotoxic effects against MCF-7 cells (72 h), A490; format: cell-based, human
[2] = cytotoxicity in Drosophila DL1 cells; format: cell-based; conditions: Drosophila, DL1 cells
Procedure: (§1) We screened the DDPs on the Drosophila assay system for cytotoxicity, inhibitory activity of innate immune signalling and insecticidal activity. The cytotoxicity of the DDPs was evaluated using two cell lines, embryonic macrophage-derived DL1 cells[58]–[60] and larval blood cell-derived l(2)mbn cells, and their IC50 values are listed in Supplementary Table 23.

DL1 cells = experiment: cytotoxicity in Drosophila DL1 cells; format: cell-based; conditions: DL1 cells; for % viability, viability 2: replicate 2, relative to DMSO 1%; for % viability, viability 1: replicate 1, relative to DMSO 1%; for IC50: cytotoxicity
Procedure: as §1

l(2)mbn cells = experiment: cytotoxicity in Drosophila l(2)mbn cells; format: cell-based; conditions: for Luminescence Raw1: replicate 1; for Luminescence Raw2: replicate 2; for % viability, viability 2: replicate 2, relative to DMSO 1%; for % viability, viability 1: replicate 1, relative to DMSO 1%
Procedure: as §1

[3] = cytotoxicity in Drosophila l(2)mbn cells; format: cell-based; conditions: Drosophila
Procedure: as §1

[4] = replicate 1, relative to DMSO 1%, read-out: % viability, viability 1
[5] = replicate 2, relative to DMSO 1%, read-out: % viability, viability 2

C=C1CCC2C(C)(CCC=C(C)C)C(O)CCC2(C)C1Cc1c(OC)oc(C)c(C)c1=O (centres unmarked) [Compound 11]
EC50 ([1]; MAGI assay, read-out: EC50): < 200 nM
EC50 ([1]; single determinations, read-out: Efficacy (EC50)): > 10000 nM
cytotoxicity against the bulk of MCF-7 cells (MCF-7 cells): dose-dependent cytotoxicity
viability at 0.1 µM (MCF-7 cells; Homo sapiens, MCF7, 72 h, MCF-7, 72 h, 0.1 µM (DMSO 0.002%), read-out: A490 (control =1) ave): 92.2%
viability at 1 µM (MCF-7 cells; Homo sapiens, MCF7, 72 h, MCF-7, 72 h, 1 µM (DMSO 0.02%), read-out: A490 (control =1) ave): 34.3%
viability at 10 µM (MCF-7 cells; Homo sapiens, MCF7, 72 h, MCF-7, 72 h, 10 µM (DMSO 0.2%), read-out: A490 (control =1) ave): 21.4%
A490 ave (MCF-7 cells; MCF-7, 72 h, 0.1 µM (DMSO 0.002%), control 1.064): 0.981
A490 ave (MCF-7 cells; MCF-7, 72 h, 1 µM (DMSO 0.02%), control 1.104): 0.379
A490 ave (MCF-7 cells; MCF-7, 72 h, 10 µM (DMSO 0.2%), control 1.049): 0.224
viability at 0.04 µM [2, 4]: 216%
viability at 0.04 µM [2, 5]: 202%
viability at 0.2 µM ([2]; 0.2 µM, replicate 1, relative to DMSO 1%, read-out: % viability, viability 1): 191%
viability at 10 µM [2, 4]: 20.5%
viability at 10 µM [2, 5]: 22.2%
viability at 20 µM [2, 4]: 22.4%
viability at 20 µM [2, 5]: 22.4%
Luminescence Raw1 (DL1 cells; 0.04 µM, replicate 1): 2962736
Luminescence Raw2 (DL1 cells; 0.04 µM, replicate 2): 2763628
Luminescence Raw1 (DL1 cells; 0.2 µM, replicate 1): 2626203
Luminescence Raw2 (DL1 cells; 0.2 µM, replicate 2): 2499962
% viability, viability 2 (DL1 cells; 0.2 µM): 182.283%
Luminescence Raw1 (DL1 cells; 1 µM, replicate 1): 427059
% viability, viability 1 (DL1 cells; 1 µM): 31.1387%
Luminescence Raw2 (DL1 cells; 1 µM, replicate 2): 482949
% viability, viability 2 (DL1 cells; 1 µM): 35.2139%
Luminescence Raw1 (DL1 cells; 4 µM, replicate 1): 281027
% viability, viability 1 (DL1 cells; 4 µM): 20.4909%
Luminescence Raw2 (DL1 cells; 4 µM, replicate 2): 305186
% viability, viability 2 (DL1 cells; 4 µM): 22.2524%
Luminescence Raw1 (DL1 cells; 10 µM, replicate 1): 281749
Luminescence Raw2 (DL1 cells; 10 µM, replicate 2): 304825
Luminescence Raw1 (DL1 cells; 20 µM, replicate 1): 307710
Luminescence Raw2 (DL1 cells; 20 µM, replicate 2): 306988
IC50 (DL1 cells; average±SEM): 400 ± 20 nM
IC50 (DL1 cells; read-out: IC50 (1), replicate 1): 380 nM
IC50 (DL1 cells; read-out: IC50 (2), replicate 2): 414 nM
IC50 (DL1 cells; read-out: IC50 Average, average of two replicates): 397 nM
Luminescence Raw1 (l(2)mbn cells; 0.04 µM): 4909467
Luminescence Raw2 (l(2)mbn cells; 0.04 µM): 3629794
% viability, viability 2 (l(2)mbn cells; 0.04 µM): 57.8063%
Luminescence Raw1 (l(2)mbn cells; 0.2 µM): 5752008
Luminescence Raw2 (l(2)mbn cells; 0.2 µM): 4449089
Luminescence Raw1 (l(2)mbn cells; 1 µM): 2597064
% viability, viability 1 (l(2)mbn cells; 1 µM): 41.3596%
Luminescence Raw2 (l(2)mbn cells; 1 µM): 1297263
% viability, viability 2 (l(2)mbn cells; 1 µM): 20.6596%
Luminescence Raw1 (l(2)mbn cells; 4 µM): 133995
% viability, viability 1 (l(2)mbn cells; 4 µM): 2.134%
Luminescence Raw2 (l(2)mbn cells; 4 µM): 142288
% viability, viability 2 (l(2)mbn cells; 4 µM): 2.266%
Luminescence Raw1 (l(2)mbn cells; 10 µM): 107674
% viability, viability 1 (l(2)mbn cells; 10 µM): 1.715%
Luminescence Raw2 (l(2)mbn cells; 10 µM): 99742
% viability, viability 2 (l(2)mbn cells; 10 µM): 1.588%
Luminescence Raw1 (l(2)mbn cells; 20 µM): 126784
Luminescence Raw2 (l(2)mbn cells; 20 µM): 170772
IC50 (l(2)mbn cells; cytotoxicity, average±SEM): 470 ± 210 nM
IC50 (l(2)mbn cells; read-out: IC50 (1), cytotoxicity, replicate 1): 681 nM
IC50 (l(2)mbn cells; read-out: IC50 (2), cytotoxicity, replicate 2): 259 nM
IC50 (l(2)mbn cells; read-out: IC50 Average, cytotoxicity, average of two replicates): 470 nM
viability at 0.04 µM ([3]; 0.04 µM, replicate 1, relative to DMSO 1%, read-out: % viability, viability 1): 78.2%
viability at 0.2 µM [3, 4]: 91.6%
viability at 0.2 µM [3, 5]: 70.9%
viability at 20 µM [3, 4]: 2.02%
viability at 20 µM [3, 5]: 2.72%
